Source: ChEMBL document CHEMBL5370619, “Targeting the Tyrosine Kinase 2 (TYK2) Pseudokinase Domain: Discovery of the Selective TYK2 Inhibitor ABBV-712” (J Med Chem, 2023)
Values after ≈ are worked out from the molar mass of the structure shown.

Legend:
[1] = tested on: Mus musculus; test: Anti-inflammatory activity in B10.RII mouse model of mouse IL-23 mini circle induced psoriasiform dermatitis assessed as decrease in ear thickness at 10 mg/kg,po BID for 5 days by caliper analysis; type: functional; design: scale not given: the % may be the effect or the level left; conditions: time 5 day
[2] = target: Tyrosine-protein kinase JAK2 (Homo sapiens, UniProt O60674); test: Inhibition of JAK2 in human UT7 cells assessed as reduction in erythropoietin induced STAT5 phosphorylation preincubated for 30 mins followed by erythropoietin stimulation and measured after 20 mins by AlphaScreen assay; type: cell-based
[3] = target: CYP3A4 (Homo sapiens, UniProt P08684); test: Induction of CYP3A4 in human hepatocytes assessed as fold increase in mRNA level at 10 uM incubated for 24 hrs by RT-qPCR analysis relative to control; type: ADME, cell-based, Hepatocyte; conditions: read-out: FC
[4] = target: Tyrosine-protein kinase JAK1 (Homo sapiens, UniProt P23458); test: Inhibition of JAK1 in human TF-1 cells assessed as reduction in IL-6 induced STAT3 phosphorylation at Tyr705 residue preincubated for 30 mins followed by IL-6 stimulation and measured after 30 mins by AlphaScreen assay; type: cell-based
[5] = In vivo inhibition of TYK2 in IL-12/IL-18 induced C57/B6 mouse model assessed as reduction in serum IFN-gamma production at 30 mg/kg,po pretreated for 30 mins prior to IL-12/IL-18 challenge and measured after 4 hrs by MSD assay; type: functional; conditions: C57/B6, 4.5 h, time 270 min
[6] = target: Non-receptor tyrosine-protein kinase TYK2 (Mus musculus, UniProt Q9R117); test: Inhibition of TYK2 in C57/B6 mouse whole blood assessed as decrease in STAT4 phosphorylation preincubated for 30 mins followed by mouse IL-12p70 stimulation and measured after 20 mins by flow cytometry; type: tissue-based
[7] = Unbound clearance in cynomolgus monkey blood at 1 mg/kg, iv; type: ADME, organism-based, Macaca fascicularis; conditions: in vivo
[8] = In vivo inhibition of TYK2 in IL-12/IL-18 induced C57/B6 mouse model assessed as reduction in serum IFN-gamma production at 300 mg/kg,po pretreated for 30 mins prior to IL-12/IL-18 challenge and measured after 4 hrs by MSD assay; type: functional; conditions: C57/B6, 4.5 h, time 270 min
[9] = AUC (0 to infinity) in dog at 1 mg/kg,po; type: ADME, organism-based, Canis lupus familiaris; design: dose 1 mg/kg, route po; conditions: in vivo
[10] = Unbound clearance in dog blood at 1 mg/kg, iv; type: ADME, organism-based, Canis lupus familiaris; conditions: in vivo
[11] = Metabolic stability in monkey hepatocytes assessed as intrinsic clearance for unbound fraction of drug; type: ADME, cell-based, Macaca mulatta, Hepatocyte; conditions: rhesus monkey
[12] = Thermodynamic solubility in PBS at pH 7.4; type: physicochemical; conditions: read-out: Therm_solubility
[13] = In vivo inhibition of TYK2 in IL-12/IL-18 induced C57/B6 mouse model assessed as reduction in serum IFN-gamma production at 100 mg/kg,po pretreated for 30 mins prior to IL-12/IL-18 challenge and measured after 4 hrs by MSD assay; type: functional; conditions: C57/B6, 4.5 h, time 270 min
[14] = Half life in rat at 1 mg/kg, iv or 1 mg/kg,po; type: ADME, organism-based; conditions: in vivo

Tyrosine-protein kinase JAK2, sequence (O60674 whole entry): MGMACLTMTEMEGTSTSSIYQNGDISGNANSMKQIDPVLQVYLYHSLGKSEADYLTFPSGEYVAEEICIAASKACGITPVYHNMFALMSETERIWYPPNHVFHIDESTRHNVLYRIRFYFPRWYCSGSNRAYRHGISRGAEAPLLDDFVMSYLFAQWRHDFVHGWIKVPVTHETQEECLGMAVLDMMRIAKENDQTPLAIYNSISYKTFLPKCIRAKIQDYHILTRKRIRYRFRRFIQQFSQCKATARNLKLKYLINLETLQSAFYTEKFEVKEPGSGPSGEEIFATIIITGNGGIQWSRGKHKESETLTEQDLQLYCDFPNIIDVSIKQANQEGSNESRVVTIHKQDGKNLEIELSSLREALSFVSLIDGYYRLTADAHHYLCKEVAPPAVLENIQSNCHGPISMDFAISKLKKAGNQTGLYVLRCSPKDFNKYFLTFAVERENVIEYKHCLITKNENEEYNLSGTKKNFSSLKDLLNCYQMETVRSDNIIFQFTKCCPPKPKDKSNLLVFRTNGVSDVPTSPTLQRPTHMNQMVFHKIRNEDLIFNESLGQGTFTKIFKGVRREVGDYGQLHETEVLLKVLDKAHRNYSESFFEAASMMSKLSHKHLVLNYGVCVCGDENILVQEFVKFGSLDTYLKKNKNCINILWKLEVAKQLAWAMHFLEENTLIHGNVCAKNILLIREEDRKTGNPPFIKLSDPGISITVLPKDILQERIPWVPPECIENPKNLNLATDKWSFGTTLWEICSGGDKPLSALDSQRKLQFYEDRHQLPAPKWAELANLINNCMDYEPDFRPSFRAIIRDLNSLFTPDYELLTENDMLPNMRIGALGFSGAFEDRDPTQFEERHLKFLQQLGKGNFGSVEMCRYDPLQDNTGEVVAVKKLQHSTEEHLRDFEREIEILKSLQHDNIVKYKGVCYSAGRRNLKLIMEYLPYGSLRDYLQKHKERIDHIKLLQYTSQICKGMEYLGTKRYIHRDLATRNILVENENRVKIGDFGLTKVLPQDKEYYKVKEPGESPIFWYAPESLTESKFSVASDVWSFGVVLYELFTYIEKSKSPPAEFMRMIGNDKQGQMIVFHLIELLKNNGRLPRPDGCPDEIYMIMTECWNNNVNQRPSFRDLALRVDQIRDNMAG
Non-receptor tyrosine-protein kinase TYK2, sequence (Q9R117 whole entry): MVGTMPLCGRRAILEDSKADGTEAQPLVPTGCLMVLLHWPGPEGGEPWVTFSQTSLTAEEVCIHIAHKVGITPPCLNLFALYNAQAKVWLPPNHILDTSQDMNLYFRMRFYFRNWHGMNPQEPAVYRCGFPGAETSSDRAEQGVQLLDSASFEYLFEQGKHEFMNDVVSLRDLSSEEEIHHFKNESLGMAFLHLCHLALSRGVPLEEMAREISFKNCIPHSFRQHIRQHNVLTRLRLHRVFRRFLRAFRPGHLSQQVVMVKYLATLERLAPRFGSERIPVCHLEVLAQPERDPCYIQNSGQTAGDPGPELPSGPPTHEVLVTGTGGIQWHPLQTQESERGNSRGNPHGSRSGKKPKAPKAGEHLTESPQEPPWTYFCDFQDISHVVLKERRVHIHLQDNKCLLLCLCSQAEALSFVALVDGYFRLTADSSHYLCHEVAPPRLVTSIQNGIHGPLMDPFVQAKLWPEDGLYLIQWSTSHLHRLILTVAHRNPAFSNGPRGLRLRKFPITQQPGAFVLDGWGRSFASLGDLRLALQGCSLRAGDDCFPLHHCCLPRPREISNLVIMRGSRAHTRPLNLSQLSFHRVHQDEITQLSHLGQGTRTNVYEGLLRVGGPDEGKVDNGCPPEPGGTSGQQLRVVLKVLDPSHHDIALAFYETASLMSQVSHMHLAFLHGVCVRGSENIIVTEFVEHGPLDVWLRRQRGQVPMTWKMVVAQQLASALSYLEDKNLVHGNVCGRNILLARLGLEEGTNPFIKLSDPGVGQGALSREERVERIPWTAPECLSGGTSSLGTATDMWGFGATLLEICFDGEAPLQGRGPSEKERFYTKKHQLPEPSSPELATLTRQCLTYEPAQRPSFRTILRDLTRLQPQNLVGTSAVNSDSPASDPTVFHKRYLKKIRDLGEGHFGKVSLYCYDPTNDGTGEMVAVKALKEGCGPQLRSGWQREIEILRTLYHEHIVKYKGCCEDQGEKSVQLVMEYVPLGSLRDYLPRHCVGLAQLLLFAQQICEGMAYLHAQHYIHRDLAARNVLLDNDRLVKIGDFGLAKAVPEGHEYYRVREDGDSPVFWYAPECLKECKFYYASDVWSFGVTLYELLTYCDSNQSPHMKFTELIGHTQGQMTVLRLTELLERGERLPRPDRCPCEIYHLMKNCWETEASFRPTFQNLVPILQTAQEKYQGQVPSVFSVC
CYP3A4, sequence (P08684 whole entry): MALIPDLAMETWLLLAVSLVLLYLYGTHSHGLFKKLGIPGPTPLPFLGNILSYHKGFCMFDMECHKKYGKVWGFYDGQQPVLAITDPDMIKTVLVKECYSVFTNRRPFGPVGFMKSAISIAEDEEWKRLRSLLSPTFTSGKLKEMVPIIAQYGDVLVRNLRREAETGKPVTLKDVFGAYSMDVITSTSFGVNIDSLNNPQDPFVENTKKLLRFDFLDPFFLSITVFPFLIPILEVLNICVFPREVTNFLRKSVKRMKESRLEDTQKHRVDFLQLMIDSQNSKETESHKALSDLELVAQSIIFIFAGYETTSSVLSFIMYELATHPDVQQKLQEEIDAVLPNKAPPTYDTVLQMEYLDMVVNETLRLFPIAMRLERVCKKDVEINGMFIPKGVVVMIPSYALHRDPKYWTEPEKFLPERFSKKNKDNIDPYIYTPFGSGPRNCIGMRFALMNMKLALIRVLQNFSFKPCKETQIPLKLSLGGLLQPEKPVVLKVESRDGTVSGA
Tyrosine-protein kinase JAK1, sequence (P23458 whole entry): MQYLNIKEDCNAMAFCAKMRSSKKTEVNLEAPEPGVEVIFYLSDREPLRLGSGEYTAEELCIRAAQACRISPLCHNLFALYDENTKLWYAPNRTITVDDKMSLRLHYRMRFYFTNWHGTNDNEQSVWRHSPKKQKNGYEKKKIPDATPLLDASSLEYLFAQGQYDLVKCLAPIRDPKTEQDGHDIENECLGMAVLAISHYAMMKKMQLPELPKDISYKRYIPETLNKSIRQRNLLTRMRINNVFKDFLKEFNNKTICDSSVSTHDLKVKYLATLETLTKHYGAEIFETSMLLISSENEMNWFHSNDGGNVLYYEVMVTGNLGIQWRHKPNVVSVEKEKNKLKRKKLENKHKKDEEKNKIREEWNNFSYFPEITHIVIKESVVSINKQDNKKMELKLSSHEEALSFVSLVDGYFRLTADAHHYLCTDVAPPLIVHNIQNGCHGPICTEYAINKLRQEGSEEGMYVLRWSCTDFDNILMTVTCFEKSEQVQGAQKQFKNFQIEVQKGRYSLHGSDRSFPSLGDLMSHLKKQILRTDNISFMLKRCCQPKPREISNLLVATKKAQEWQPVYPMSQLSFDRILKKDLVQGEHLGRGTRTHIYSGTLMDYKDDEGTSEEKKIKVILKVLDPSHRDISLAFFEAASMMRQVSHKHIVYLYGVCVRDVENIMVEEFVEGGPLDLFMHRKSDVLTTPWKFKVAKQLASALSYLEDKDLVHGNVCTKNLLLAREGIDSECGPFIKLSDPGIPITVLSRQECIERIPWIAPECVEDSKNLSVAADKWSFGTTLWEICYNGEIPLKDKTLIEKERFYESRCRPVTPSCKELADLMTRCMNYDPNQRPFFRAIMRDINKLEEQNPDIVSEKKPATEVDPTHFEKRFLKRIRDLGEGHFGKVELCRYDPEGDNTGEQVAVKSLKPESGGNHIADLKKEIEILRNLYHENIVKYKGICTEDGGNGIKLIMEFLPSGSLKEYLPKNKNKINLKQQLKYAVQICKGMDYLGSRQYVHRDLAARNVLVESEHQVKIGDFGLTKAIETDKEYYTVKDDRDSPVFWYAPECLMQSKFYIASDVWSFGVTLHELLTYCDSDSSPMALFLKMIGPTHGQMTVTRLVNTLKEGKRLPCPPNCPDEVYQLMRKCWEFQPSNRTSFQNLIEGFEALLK

EC50 [2]: > 20 µM | fold induction at 24 h, 10 µM [3]: 1.5 | EC50 [4]: > 20 µM | EC50 [6]: 1.4 µM | CL free [7]: 38.3 mL/min/kg | AUC(0-inf) [9]: 2300 ng·h/mL | CL free [10]: 7.67 mL/min/kg | CL free [11]: 45 mL/min/kg | solubility thermodynamic [12]: 708 µM (≈ 320 µg/mL) | half-life [14]: 36 min
Compound: COCc1cc(-c2cn(C3COC3)c3cnc(NC(C)=O)cc23)nc([C@]2(OC)CCOC2)c1
Activity [1]: 38% | inhibition in vivo at 30 mg/kg [5]: 77% | inhibition in vivo at 300 mg/kg [8]: 95% | inhibition in vivo at 100 mg/kg [13]: 84%
